For assay [1], the target named is T1, Neuropeptide Y receptor type 2 (Homo sapiens, UniProt P49146).
T1 sequence (P49146 whole entry): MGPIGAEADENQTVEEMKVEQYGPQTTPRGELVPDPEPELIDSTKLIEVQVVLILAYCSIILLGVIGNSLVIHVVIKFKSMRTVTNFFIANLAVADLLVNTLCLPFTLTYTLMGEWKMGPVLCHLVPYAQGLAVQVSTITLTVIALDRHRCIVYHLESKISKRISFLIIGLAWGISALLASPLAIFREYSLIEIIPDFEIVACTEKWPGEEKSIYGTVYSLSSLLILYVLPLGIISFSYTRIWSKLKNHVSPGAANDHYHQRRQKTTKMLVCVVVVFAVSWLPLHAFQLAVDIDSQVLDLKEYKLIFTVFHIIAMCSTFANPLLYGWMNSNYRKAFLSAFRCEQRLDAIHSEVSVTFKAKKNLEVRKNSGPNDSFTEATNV
The assay is described as follows: Displacement of [125I]-PYY from human neuropeptide Y2 receptor expressed in CHO cell membranes incubated for 60 mins by TopCount based method. A general note: In a radioligand displacement assay an active substance lowers the binding of a labelled ligand.

Assay [2] deals with T1, Neuropeptide Y receptor type 2. The assay is described as follows: Agonist activity at human neuropeptide Y2 receptor expressed in CHO cell membranes assessed as stimulation of [35S]GTPgammaS binding incubated for 120 mins by liquid scintillation counting method. It counts as functional.
Assay [3] concerns Mus musculus. Description: Anorectic activity in C57BL/6J mouse assessed as inhibition of food intake at 0.03 mg/kg/day, sc for 3 days dosed as continuous administration by infusion using osmotic pump. The format is functional. As to conditions: 72 h.
Assay [4] concerns Mus musculus. The assay is described as follows: Anorectic activity in C57BL/6J mouse assessed as inhibition of food intake at 0.3 mg/kg/day, sc dosed as […] and measured after 12 hrs. The format is functional.
The subject of assay [5] is Mus musculus. Description: Anorectic activity in C57BL/6J mouse assessed as inhibition of food intake at 0.3 mg/kg/day, sc dosed as […] and measured after 24 hrs. The format is functional.

Consider `CC[C@](C)(NC(=O)[C@H](CC(C)C)NC(=O)[C@H](CC(N)=O)NC(=O)[C@H](CC1CCCCC1)NC(=O)[C@H](CC1CCCCC1)NC(=O)[C@H](Cc1cnc[nH]1)NC(=O)[C@H](CCCNC(=N)N)NC(=O)[C@H]1CCCN1C(=O)[C@H](CO)NC(C)=O)C(=O)N[C@H](C(=O)N[C@@H](CCCNC(=N)N)C(=O)N[C@@H](CCC(N)=O)C(=O)N[C@@H](CCCNC(=N)N)C(=O)N[C@@H](CC1CCCCC1)C(N)=O)[C@@H](C)O`, for which the IC50 (as a rule, the point on the concentration scale where inhibition reaches its midpoint) in assay [1] was 3.7 nM. In assay [2], the EC50 (commonly the concentration giving half of the maximal effect) was found to be 0.41 nM.

The molecule `CC[C@](C)(NC(=O)[C@H]1CCCN1C(=O)[C@H](CO)NC(C)=O)C(=O)N[C@@H](Cc1ccncc1)C(=O)N[C@@H](CC1CCCCC1)C(=O)N[C@@H](CC(C)(C)C)C(=O)N[C@@H](CC(N)=O)C(=O)N[C@@H](CCCCN)C(=O)NC(C)(C)C(=O)N[C@H](C(=O)N[C@@H](CCCNC(=N)N)C(=O)N[C@@H](CCC(N)=O)C(=O)N[C@@H](CCCNC(=N)N)C(=O)N[C@@H](CC1CCCCC1)C(N)=O)[C@@H](C)O` showed an IC50 in assay [1] of 0.4 nM. In assay [2], the EC50 amounted to 0.2 nM. For the same molecule, in the assay on Mus musculus [3], the inhibition in vivo (commonly the percentage by which the read-out fell short of the control) at 0.03 mg/kg/day stood at 52%. For the same molecule, the values for the inhibition in vivo at 0.3 mg/kg/day in the assay on Mus musculus [4] and in the assay on Mus musculus [5] were 12% and 1%, respectively.

For `CC[C@](C)(NC(=O)[C@H]1C[C@H](O)CN1C(=O)[C@H](CO)NC(=O)c1c[nH]cn1)C(=O)N[C@@H](Cc1ccncc1)C(=O)N[C@@H](CC1CCCCC1)C(=O)NC(C)(C)C(=O)N[C@@H](CC(N)=O)C(=O)N[C@@H](CCCCN)C(=O)NC(C)(C)C(=O)N[C@H](C(=O)N[C@@H](CCCNC(=N)N)C(=O)N[C@@H](CCC(N)=O)C(=O)N[C@@H](CCCNC(=N)N)C(=O)N[C@@H](CC1CCCCC1)C(N)=O)[C@@H](C)O`, the IC50 in assay [1] worked out at 0.91 nM. Moreover, the EC50 in assay [2] was determined as 0.17 nM.

`CC[C@](C)(NC(=O)[C@H]1C[C@H](O)CN1C(=O)[C@H](CO)NC(C)=O)C(=O)N[C@@H](Cc1ccncc1)C(=O)N[C@@H](CC1CCCCC1)C(=O)N[C@@H](CC(C)(C)C)C(=O)N[C@@H](CC(N)=O)C(=O)N[C@@H](CCCCN)C(=O)NC(C)(C)C(=O)N[C@H](C(=O)N[C@@H](CCCNC(=N)N)C(=O)N[C@@H](CCC(N)=O)C(=O)N[C@@H](CCCNC(=N)N)C(=O)N[C@@H](CC1CCCCC1)C(N)=O)[C@@H](C)O` had an IC50 in assay [1] of 0.58 nM. For the same molecule, the EC50 in assay [2] was 0.13 nM. Further, the inhibition in vivo at 0.03 mg/kg/day in the assay with Mus musculus [3] came out at 27%. The inhibition in vivo at 0.3 mg/kg/day is 4% in the assay with Mus musculus [4] and 8% in the assay with Mus musculus [5].

In turn, `CC[C@@](C)(NC(=O)[C@H](CC1CCCCC1)NC(=O)[C@H](Cc1cnc[nH]1)NC(=O)[C@H](CCCNC(=N)N)NC(=O)[C@H]1CCCN1C(=O)[C@H](CO)NC(C)=O)C(=O)N[C@@H](CC(N)=O)C(=O)N[C@@H](CC(C)C)C(=O)NC(C)(C)C(=O)N[C@H](C(=O)N[C@@H](CCCNC(=N)N)C(=O)N[C@@H](CCC(N)=O)C(=O)N[C@@H](CCCNC(=N)N)C(=O)N[C@@H](CC1CCCCC1)C(N)=O)[C@@H](C)O` yielded an IC50 in assay [1] of 3.3 nM. Besides, the EC50 in assay [2] stood at 0.5 nM.

Turning to `CC[C@](C)(NC(=O)[C@H](CC1CCCCC1)NC(=O)[C@H](Cc1ccncc1)NC(=O)[C@](C)(CC)NC(=O)[C@H]1C[C@H](O)CN1C(=O)[C@H](CO)NC(=O)c1c[nH]cn1)C(=O)N[C@@H](CC(N)=O)C(=O)N[C@@H](CCCCN)C(=O)NC(C)(C)C(=O)N[C@H](C(=O)N[C@@H](CCCNC(=N)N)C(=O)N[C@@H](CCC(N)=O)C(=O)N[C@@H](CCCNC(=N)N)C(=O)N[C@@H](CC1CCCCC1)C(N)=O)[C@@H](C)O`, the IC50 in assay [1] was 0.44 nM. Also, the concentration for a half-maximal effect (EC50) in assay [2] was 0.13 nM. The inhibition in vivo at 0.03 mg/kg/day in the assay with Mus musculus [3] was found to be 49%.

`CC[C@@](C)(NC(=O)[C@H](CO)NC(C)=O)C(=O)N[C@@H](CCCNC(=N)N)C(=O)N[C@@H](Cc1cnc[nH]1)C(=O)N[C@@H](CC1CCCCC1)C(=O)N[C@@H](CC1CCCCC1)C(=O)N[C@@H](CC(N)=O)C(=O)N[C@@H](CC(C)C)C(=O)NC(C)(C)C(=O)N[C@H](C(=O)N[C@@H](CCCNC(=N)N)C(=O)N[C@@H](CCC(N)=O)C(=O)N[C@@H](CCCNC(=N)N)C(=O)N[C@@H](CC1CCCCC1)C(N)=O)[C@@H](C)O` yielded a half-maximal inhibitory concentration (IC50) in assay [1] of 2.4 nM. For the same molecule, the EC50 in assay [2] was 0.28 nM.

Molecule `CC[C@](C)(NC(=O)[C@H](CO)NC(C)=O)C(=O)N[C@@H](CCCNC(=N)N)C(=O)N[C@@H](Cc1cnc[nH]1)C(=O)N[C@@H](CC1CCCCC1)C(=O)N[C@@H](CC1CCCCC1)C(=O)N[C@@H](CC(N)=O)C(=O)N[C@@H](CC(C)C)C(=O)NC(C)(C)C(=O)N[C@H](C(=O)N[C@@H](CCCNC(=N)N)C(=O)N[C@@H](CCC(N)=O)C(=O)N[C@@H](CCCNC(=N)N)C(=O)N[C@@H](CC1CCCCC1)C(N)=O)[C@@H](C)O` had an IC50 in assay [1] of 1.8 nM. The half-maximal effective concentration (EC50) in assay [2] amounted to 0.35 nM.

In assay [1], `CC[C@](C)(NC(=O)[C@H]1C[C@H](O)CN1C(=O)[C@H](CO)NC(C)=O)C(=O)N[C@@H](Cc1ccncc1)C(=O)N[C@@H](CC1CCCCC1)C(=O)NC(C)(C)C(=O)N[C@@H](CC(N)=O)C(=O)N[C@@H](CCCCN)C(=O)NC(C)(C)C(=O)N[C@H](C(=O)N[C@@H](CCCNC(=N)N)C(=O)N[C@@H](CCC(N)=O)C(=O)N[C@@H](CCCNC(=N)N)C(=O)N[C@@H](CC1CCCCC1)C(N)=O)[C@@H](C)O` had an IC50 of 0.78 nM. The EC50 in assay [2] was 0.21 nM. Moreover, in the assay on Mus musculus [3], the inhibition in vivo at 0.03 mg/kg/day is 45%.

In turn, `CC[C@@](C)(NC(=O)[C@H](CC(C)C)NC(=O)[C@H](CC(N)=O)NC(=O)[C@H](CC1CCCCC1)NC(=O)[C@H](CC1CCCCC1)NC(=O)[C@H](Cc1cnc[nH]1)NC(=O)[C@H](CCCNC(=N)N)NC(=O)[C@H]1CCCN1C(=O)[C@H](CO)NC(C)=O)C(=O)N[C@H](C(=O)N[C@@H](CCCNC(=N)N)C(=O)N[C@@H](CCC(N)=O)C(=O)N[C@@H](CCCNC(=N)N)C(=O)N[C@@H](CC1CCCCC1)C(N)=O)[C@@H](C)O` showed an IC50 in assay [1] of 0.67 nM. Moreover, the concentration for a half-maximal effect (EC50) in assay [2] is 0.17 nM.

Molecule `CC(C)C[C@H](NC(=O)[C@H](CC(N)=O)NC(=O)[C@H](CC1CCCCC1)NC(=O)[C@H](CC1CCCCC1)NC(=O)[C@H](Cc1cnc[nH]1)NC(=O)[C@H](CCCNC(=N)N)NC(=O)[C@H]1CCCN1C(=O)[C@H](CO)NC(=O)c1c[nH]cn1)C(=O)NC(C)(C)C(=O)N[C@H](C(=O)N[C@@H](CCCNC(=N)N)C(=O)N[C@@H](CCC(N)=O)C(=O)N[C@@H](CCCNC(=N)N)C(=O)N[C@@H](CC1CCCCC1)C(N)=O)[C@@H](C)O` registered an IC50 in assay [1] of 0.51 nM. Besides, in assay [2], the EC50 came to 0.18 nM.

For the molecule `CC[C@](C)(NC(=O)[C@H](CC1CCCCC1)NC(=O)[C@H](Cc1cnc[nH]1)NC(=O)[C@H](CCCNC(=N)N)NC(=O)[C@H]1CCCN1C(=O)[C@H](CO)NC(C)=O)C(=O)N[C@@H](CC(N)=O)C(=O)N[C@@H](CC(C)C)C(=O)NC(C)(C)C(=O)N[C@H](C(=O)N[C@@H](CCCNC(=N)N)C(=O)N[C@@H](CCC(N)=O)C(=O)N[C@@H](CCCNC(=N)N)C(=O)N[C@@H](CC1CCCCC1)C(N)=O)[C@@H](C)O`, the half-inhibitory concentration (IC50) in assay [1] turned out to be 0.45 nM. Also, in assay [2], the EC50 is 0.18 nM.

On to `CC(C)C[C@H](NC(=O)[C@H](CC(N)=O)NC(=O)[C@H](CC1CCCCC1)NC(=O)[C@H](CC1CCCCC1)NC(=O)[C@H](Cc1cnc[nH]1)NC(=O)[C@H](CCCNC(=N)N)NC(=O)[C@H]1CCCN1C(=O)[C@H](CO)NC(=O)CO)C(=O)NC(C)(C)C(=O)N[C@H](C(=O)N[C@@H](CCCNC(=N)N)C(=O)N[C@@H](CCC(N)=O)C(=O)N[C@@H](CCCNC(=N)N)C(=O)N[C@@H](CC1CCCCC1)C(N)=O)[C@@H](C)O`, for which the IC50 in assay [1] amounted to 1.2 nM. Further, the EC50 in assay [2] stood at 0.59 nM.

The record behind these values is ChEMBL document CHEMBL4177573 (Bioorg Med Chem, 2017).
